# Paper PMC7180718, “Synthesis, Docking Studies and Biological Activity of New Benzimidazole- Triazolothiadiazine Derivatives as Aromatase Inhibitor” (Molecules, 2020)
# Like-named read-outs stand apart in the source and are kept apart here.
# What was measured:
# [1] = system: MCF-7 breast cancer cell line; assay: MTT cytotoxicity assay, MCF-7; type: cell-based, human
# Procedure: (§1) The newly synthesized compounds were evaluated for their in vitro anticancer potential against MCF-7 breast cancer cell lines by MTT assay using cisplatin as a reference standard. The 50% inhibitory concentration (IC50) values were determined for these compounds. In addition, the cytotoxic activities of compounds 5c, 5e, 5k, and 5m were assessed against healthy NIH3T3 [25] cells, in order to express the selectivity toward carcinogenic cells. The IC50 values of test compounds were determined as the mean IC50 of 4 independent experiments.
# (§2) The anticancer activity of compounds 5a–5p were screened according to the MTT assays. The MTT assays were performed as previously described. Cisplatin was used as the reference drug for the MCF7 cell line in the MTT assays.
# [2] = system: NIH3T3 cells; assay: MTT cytotoxicity assay, healthy NIH3T3 cells; type: cell-based
# Procedure: as §1, §2
# [3] = target: T1, recombinant human aromatase (Homo sapiens, UniProt P11511); assay: Fluorometric aromatase (CYP19A) inhibitor screening kit (Bio Vision); type: biochemical; details: read-out: IC50 Aromatase Inhibition
# T1 construct: purchased Bio Vision
# T1 sequence (P11511 1-503): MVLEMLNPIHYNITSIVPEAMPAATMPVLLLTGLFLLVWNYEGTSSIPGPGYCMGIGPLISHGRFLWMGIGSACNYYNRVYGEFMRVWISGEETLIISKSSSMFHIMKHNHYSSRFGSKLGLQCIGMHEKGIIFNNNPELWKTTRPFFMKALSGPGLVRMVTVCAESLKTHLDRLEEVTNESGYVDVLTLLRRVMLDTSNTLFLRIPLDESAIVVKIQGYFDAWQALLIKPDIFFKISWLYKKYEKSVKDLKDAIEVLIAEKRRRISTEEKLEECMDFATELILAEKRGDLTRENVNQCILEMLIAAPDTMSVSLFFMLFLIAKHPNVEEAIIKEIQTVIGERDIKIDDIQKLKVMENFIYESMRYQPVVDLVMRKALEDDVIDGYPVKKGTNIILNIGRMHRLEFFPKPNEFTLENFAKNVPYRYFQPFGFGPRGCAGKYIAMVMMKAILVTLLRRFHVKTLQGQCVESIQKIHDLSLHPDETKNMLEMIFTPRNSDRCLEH
# [4] = fluorometric kit, letrozole as reference
SMILES,IC50 ([1]; n = 4) [µM],further results
"Clc1ccc2[nH]c(-c3ccc(-c4nnc5n4N=C(c4ccc(Br)cc4)CS5)cc3)nc2c1 [Compound 5n, 3-(4-(5-chloro-1H-benzo[d]imidazol-2-yl)phenyl)-6-(4-bromophenyl)-7H-[1,2,4]triazole [3,4-b][1,3,4] thiadiazine]",0.264 ± 0.011,
"c1ccc(C2=Nn3c(nnc3-c3ccc(-c4nc5ccccc5[nH]4)cc3)SC2)cc1 [Compound 5a, 3-(4-(1H-benzo[d]imidazol-2-yl)phenyl)-6-phenyl-7H-[1,2,4]triazole[3,4-b][1,3,4] thiadiazine]",0.142 ± 0.007,
"Cc1ccc(C2=Nn3c(nnc3-c3ccc(-c4nc5ccccc5[nH]4)cc3)SC2)cc1 [Compound 5d, 3-(4-(1H-benzo[d]imidazol-2-yl)phenyl)-6-(4-methylphenyl)-7H-[1,2,4]triazole[3,4-b][1,3,4] thiadiazine]",0.194 ± 0.006,
"Fc1ccc(C2=Nn3c(nnc3-c3ccc(-c4nc5ccccc5[nH]4)cc3)SC2)c(F)c1 [Compound 5g, 3-(4-(1H-benzo[d]imidazol-2-yl)phenyl)-6-(2,4-difluorohenyl)-7H-[1,2,4]triazole [3,4-b][1,3,4] thiadiazine]",0.245 ± 0.004,
"Brc1ccc(C2=Nn3c(nnc3-c3ccc(-c4nc5ccccc5[nH]4)cc3)SC2)cc1 [Compound 5f, 3-(4-(1H-benzo[d]imidazol-2-yl)phenyl)-6-(4-bromophenyl)-7H-[1,2,4]triazole[3,4-b][1,3,4] thiadiazine]",0.318 ± 0.019,
"Fc1ccc(C2=Nn3c(nnc3-c3ccc(-c4nc5cc(Cl)ccc5[nH]4)cc3)SC2)c(F)c1 [Compound 5o, 3-(4-(5-chloro-1H-benzo[d]imidazol-2-yl)phenyl)-6-(2,4-difluorohenyl)-7H-[1,2,4]triazole [3,4-b][1,3,4] thiadiazine]",0.373 ± 0.011,
"N.N.[Cl][Pt][Cl] [Cisplatin, reference compound]",0.02 ± 0.009,IC50 ([2]; n = 4): ≥ 1000 µM
"Fc1ccc(C2=Nn3c(nnc3-c3ccc(-c4nc5ccccc5[nH]4)cc3)SC2)cc1 [Compound 5c, 3-(4-(1H-benzo[d]imidazol-2-yl)phenyl)-6-(4-fluorophenyl)-7H-[1,2,4]triazole[3,4-b][1,3,4] thiadiazine]",0.119 ± 0.005,"IC50 ([2]; n = 4): 81.8 ± 2.4 µM; IC50 [3, 4]: 1.72 ± 0.042 µM"
"Clc1ccc(C2=Nn3c(nnc3-c3ccc(-c4nc5ccccc5[nH]4)cc3)SC2)c(Cl)c1 [Compound 5h, 3-(4-(1H-benzo[d]imidazol-2-yl)phenyl)-6-(2,4-dichlorophenyl)-7H-[1,2,4]triazole[3,4-b] [1,3,4] thiadiazine]",0.342 ± 0.017,
"N#Cc1ccc(C2=Nn3c(nnc3-c3ccc(-c4nc5cc(Cl)ccc5[nH]4)cc3)SC2)cc1 [Compound 5m, 3-(4-(5-chloro-1H-benzo[d]imidazol-2-yl)phenyl)-6-(4-cyanophenyl)-7H-[1,2,4]triazole [3,4-b][1,3,4] thiadiazine]",0.018 ± 0.001,"IC50 ([2]; n = 4): ≥ 1000 µM; IC50 [3, 4]: 1.56 ± 0.064 µM"
"Clc1ccc(C2=Nn3c(nnc3-c3ccc(-c4nc5cc(Cl)ccc5[nH]4)cc3)SC2)cc1 [Compound 5j, 3-(4-(5-chloro-1H-benzo[d]imidazol-2-yl)phenyl)-6-(4-chlorophenyl)-7H-[1,2,4]triazole [3,4-b][1,3,4] thiadiazine]",0.258 ± 0.011,
"Clc1ccc(C2=Nn3c(nnc3-c3ccc(-c4nc5cc(Cl)ccc5[nH]4)cc3)SC2)c(Cl)c1 [Compound 5p, 3-(4-(5-chloro-1H-benzo[d]imidazol-2-yl)phenyl)-6-(2,4-dichlorophenyl)-7H-[1,2,4]triazole [3,4-b][1,3,4] thiadiazine]",0.147 ± 0.001,
"Cc1ccc(C2=Nn3c(nnc3-c3ccc(-c4nc5cc(Cl)ccc5[nH]4)cc3)SC2)cc1 [Compound 5l, 3-(4-(5-chloro-1H-benzo[d]imidazol-2-yl)phenyl)-6-(4-methylphenyl)-7H-[1,2,4]triazole [3,4-b][1,3,4] thiadiazine]",0.352 ± 0.019,
"Fc1ccc(C2=Nn3c(nnc3-c3ccc(-c4nc5cc(Cl)ccc5[nH]4)cc3)SC2)cc1 [Compound 5k, 3-(4-(5-chloro-1H-benzo[d]imidazol-2-yl)phenyl)-6-(4-fluorophenyl)-7H-[1,2,4]triazole [3,4-b][1,3,4] thiadiazine]",0.11 ± 0.005,"IC50 ([2]; n = 4): 77.6 ± 2.1 µM; IC50 [3, 4]: 2.28 ± 0.106 µM"
"N#Cc1ccc(C2=Nn3c(nnc3-c3ccc(-c4nc5ccccc5[nH]4)cc3)SC2)cc1 [Compound 5e, 3-(4-(1H-benzo[d]imidazol-2-yl)phenyl)-6-(4-cyanophenyl)-7H-[1,2,4]triazole[3,4-b][1,3,4] thiadiazine]",,"melting point: 259.3 to 263.1 °C; IC50 ([1]; Homo sapiens, MCF7, n = 4): 0.016 ± 0.001 µM; IC50 ([2]; Mus musculus, NIH3T3, n = 4): ≥ 1000 µM; IC50 [3]: 0.032 ± 0.001 µM"
"Clc1ccc2[nH]c(-c3ccc(-c4nnc5n4N=C(c4ccccc4)CS5)cc3)nc2c1 [Compound 5i, 3-(4-(5-chloro-1H-benzo[d]imidazol-2-yl)phenyl)-6-phenyl-7H-[1,2,4]triazole[3,4-b][1,3,4] thiadiazine]",0.205 ± 0.005,
